Results as given in patent US20230295197A1, “STAT5 and STAT6 Degraders and Uses Thereof” (REGENTS OF THE UNIVERSITY OF MICHICAN, priority 2022, published 2023).
Where two headings read alike, the source gives them in different places.

Test system: STAT5
Test: Immunoblotting (Western blot) analysis of STAT5 degradation efficiency of degraders in treated cells
Assay type: cell-based
Outline: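 About 1 million cells per point, grown in 10% FBS medium at 37 °C/5% CO2, were exposed to compound at the indicated concentrations and times, then lysed in RIPA buffer with protease and phosphatase inhibitors. Equal protein (20-40 μg) was resolved by SDS-PAGE, blotted to PVDF, and probed with anti-STAT5, anti-STAT6 and anti-GAPDH antibodies.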

[1] = MOLM-16 cells, numeric bound, read-out: DC50 S5 MOLM-16
[2] = SKNO1 cells, read-out: DC50 S5 SKNO1
[3] = KU-812 cells, read-out: DC50 S5 KU-812

| Structure (SMILES) | DC50 [1] [µM] | DC50 [2] [µM] | DC50 [3] [µM] |
| --- | --- | --- | --- |
| CCN1CC[C@H]2CC[C@@H](C(=O)N(CCC(=O)N3CCC(C#Cc4cccc5c4CN(C4CCC(=O)NC4=O)C5=O)CC3)c3ccc(Br)cc3)N2C(=O)[C@@H](NC(=O)c2cc3cc(C(F)(F)P(=O)(O)O)ccc3s2)C1 (stereo partly drawn) [Compound 630, ((2-(((5S,8S,10aR)-8-((4-bromophenyl)(3-(4-((2-(2,6-dioxopiperidin-3-yl)-1-oxoisoindolin-4-yl)ethynyl)piperidin-1-yl)-3-oxopropyl)carbamoyl)-3-ethyl-6-oxodecahydropyrrolo[1,2-a][1,5]diazocin-5-yl)carbamoyl)benzo[b]thiophen-5-yl)difluoromethyl)phosphonic acid] | > 0.3 | – | – |
| CC(C)(C)[C@H](NC(=O)c1cc2cc(C(F)(F)P(=O)(O)O)ccc2s1)C(=O)N1CCC[C@H]1C(=O)N(CCC(=O)N1CCC(C#Cc2cccc3c2CN(C2CCC(=O)NC2=O)C3=O)CC1)c1ccc(Br)cc1 (stereo partly drawn) [Compound 613, ((2-(((2S)-1-((2S)-2-((4-bromophenyl)(3-(4-((2-(2,6-dioxopiperidin-3-yl)-1-oxoisoindolin-4-yl)ethynyl)piperidin-1-yl)-3-oxopropyl)carbamoyl)pyrrolidin-1-yl)-3,3-dimethyl-1-oxobutan-2-yl)carbamoyl)benzo[b]thiophen-5-yl)difluoromethyl)phosphonic acid] | > 0.3 | > 10 | > 10 |
| CC(C)(C)[C@H](NC(=O)c1cc2cc(C(F)(F)P(=O)(O)O)ccc2s1)C(=O)N1C[C@H](OCc2ccccc2)C[C@H]1C(=O)N(CCC(=O)NCCCCCC#Cc1cccc2c1CN(C1CCC(=O)NC1=O)C2=O)c1ccc(Br)cc1 (stereo partly drawn) [Compound 620, ((2-(((2S)-1-((2S,4R)-4-(benzyloxy)-2-((4-bromophenyl)(3-((7-(2-(2,6-dioxopiperidin-3-yl)-1-oxoisoindolin-4-yl)hept-6-yn-1-yl)amino)-3-oxopropyl)carbamoyl)pyrrolidin-1-yl)-3,3-dimethyl-1-oxobutan-2-yl)carbamoyl)benzo[b]thiophen-5-yl)difluoromethyl)phosphonic acid] | > 0.3 | – | – |

Now from value to molecule:

| DC50 [1] [µM] | DC50 [2] [µM] | DC50 [3] [µM] | Structure (SMILES) |
| --- | --- | --- | --- |
| > 0.3 | 0.1 to 1 | – | CC(C)(C)[C@H](NC(=O)c1cc2cc(C(F)(F)P(=O)(O)O)ccc2s1)C(=O)N1CCC[C@H]1C(=O)N(CCC(=O)NCCCC#Cc1cccc2c1CN(C1CCC(=O)NC1=O)C2=O)c1ccc(I)cc1 (stereo partly drawn) [Compound 637, ((2-(((2S)-1-((2S)-2-((3-((5-(2-(2,6-dioxopiperidin-3-yl)-1-oxoisoindolin-4-yl)pent-4-yn-1-yl)amino)-3-oxopropyl)(4-iodophenyl)carbamoyl)pyrrolidin-1-yl)-3,3-dimethyl-1-oxobutan-2-yl)carbamoyl)benzo[b]thiophen-5-yl)difluoromethyl)phosphonic acid] |
| > 0.3 | 1 to 10 | – | CC(C)(C)[C@H](NC(=O)c1cc2cc(C(F)(F)P(=O)(O)O)ccc2s1)C(=O)N1CCC[C@H]1C(=O)N(CCC(=O)NCCCC#Cc1cccc2c1CN(C1CCC(=O)NC1=O)C2=O)c1ccc(C(F)(F)F)cc1 (stereo partly drawn) [Compound 644, ((2-(((2S)-1-((2S)-2-((3-((5-(2-(2,6-dioxopiperidin-3-yl)-1-oxoisoindolin-4-yl)pent-4-yn-1-yl)amino)-3-oxopropyl)(4-(trifluoromethyl)phenyl)carbamoyl)pyrrolidin-1-yl)-3,3-dimethyl-1-oxobutan-2-yl)carbamoyl)benzo[b]thiophen-5-yl)difluoromethyl)phosphonic acid] |
| – | 0.1 to 1 | 0.1 to 1 | CN(CCCC#Cc1cccc2c1CN(C1CCC(=O)NC1=O)C2=O)C(=O)CCN(C(=O)[C@@H]1CCCN1C(=O)[C@@H](NC(=O)c1cc2cc(C(F)(F)P(=O)(O)O)ccc2s1)C(C)(C)C)c1ccc2sccc2c1 (stereo partly drawn) [Compound 685, ((2-(((2S)-1-((2S)-2-(benzo[b]thiophen-5-yl(3-((5-(2-(2,6-dioxopiperidin-3-yl)-1-oxoisoindolin-4-yl)pent-4-yn-1-yl)(methyl)amino)-3-oxopropyl)carbamoyl)pyrrolidin-1-yl)-3,3-dimethyl-1-oxobutan-2-yl)carbamoyl)benzo[b]thiophen-5-yl)difluoromethyl)phosphonic acid] |
